Assays:
[1] = system: CDF1 /SLC strain male mice; assay: Acute toxicity, LD50 on 10 consecutive days; format: in vivo; conditions: subcutaneous, Behrens-Karber method
Protocol: LD50 was assayed by administering several representative compounds of this invention for 10 consecutive days.
CDF1 /SLC strain male mice (each 6 weeks old, 7 members per group) were subcutaneously administered with various compounds of this invention, the dose being different with each compound. LD50 (daily dose) was estimated from the mortality during the administration period by the Behrens-Karber method.

[2] = system: ICR strain mice; assay: Pulmonary toxicity (pulmonary fibrosis) in mice, intraperitoneal injection; format: in vivo; conditions: 5 mg/kg i.p. once a day for 10 days; for Grade of pulmonary fibrosis, % / Incidence of pulmonary fibrosis, % / Incidence: number of mice suffering from pulmonary fibrosis / Grade: total score of pulmonary fibrosis/total number of test animal: autopsy after 5 weeks; for Incidence: number of mice suffering from pulmonary fibrosis: affected/total mice; for Grade: total score of pulmonary fibrosis/total number of test animal: score 0-6 points; for Grade of pulmonary fibrosis, Ratio / Incidence of pulmonary fibrosis, Ratio: reference of the ratio not stated
Summary of the method: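 Male ICR mice, 15 weeks old, 9 per group, received 5 mg/kg intraperitoneally once daily for 10 days. They were autopsied after 5 weeks' observation for pulmonary fibrosis incidence and grade: 1, alveolar exudate/septal fibrosis-like change; 2, fibrosis in several areas; 4, scattered fibrosis; 6, fibrosis over >2/3 of area.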

[3] = system: Bacillus subtilis; assay: Antimicrobial activity, agar plate-cylinder method; format: cell-based; conditions: Cu-free form; bleomycin A2 (Cu-free form) standard assumed 1,000 mcg/mg
Protocol: (1) Antimicrobial activity against Mycobacterium smegmatis ATCC 697 and Bacillus subtilis.
(§1) The activity was assayed against the above test microorganisms by the method of agar plate-cylinder, assuming the potency of bleomycin A2 (Cu-free form), used as standard, to be 1,000 mcg/mg.

[4] = system: Lymphocytic leukemia P-388; assay: In vivo antitumor activity, murine lymphocytic leukemia P-388; conditions: BDF1-SLC mice, i.p. transplant, once daily for 9 days, 30 days observation; T/C more than 130 effective
Protocol: The following data with respect to the testing of a group of the presently claimed substances in vivo according to a standard test method involving murine lymphocytic leukemia P-388 is presented to lend further assurance as to the utility of the compounds as inhibitors of mammalian tumors.
Lymphocytic leukemia P-388 cells (1×10^5 /0.2 ml) were transplanted intraperitoneally into male BDF1 -SLC mice (5 mice/group). Each of the compounds of this invention was diluted with physiological saline to various concentrations. Each dilution was administered at a dose of 0.1 ml/10 g of body weight once daily for 9 days, starting on the day after the day of the transplantation. The mice of the control group were administered physiological saline.
The average number of days that the group receiving the compound of this invention survived was calculated. The figure obtained was divided by the average number of survival days for the control group, and was multiplied by 100 (T/C (%)).
T/C value more than 130 was considered to be effective.

[5] = system: Hela S3 cells; assay: Growth inhibitory activity against Hela S3 cells; format: cell-based; conditions: Cu-free form; Hela S3, 3 days incubation with compound
Protocol: The percentage growth inhibition was calculated using the equation: […] wherein A is the ultimate number of cells on the third day from the addition of a test sample, B is the ultimate number of cells in the control (without the addition of test sample), and C is the number of cells on the day of addition of the test sample.

[6] = system: Mycobacterium smegmatis ATCC 607; assay: Antimicrobial activity, agar plate-cylinder method; format: cell-based; conditions: Cu-free form; bleomycin A2 (Cu-free form) standard assumed 1,000 mcg/mg
Protocol: as §1

[7] = system: ICR mice; assay: Pulmonary toxicity (pulmonary fibrosis) in mice, intratracheal instillation; format: in vivo; conditions: 16 μg/50 μl/mouse intratracheally, sacrificed 4 weeks after instillation; for Grade: total score of pulmonary fibrosis/total number of samples: score 0-6 points
[8] = system: Hela S3 cells; conditions: background statement; cited from earlier work

Structure (SMILES) | LD50 (daily dose) [1] | Grade of pulmonary fibrosis, % [2] | Incidence of pulmonary fibrosis, % [2] | Incidence: number of mice suffering from pulmonary fibrosis [2] | Grade: total score of pulmonary fibrosis/total number of test animal [2] | Grade of pulmonary fibrosis, Ratio [2] | Incidence of pulmonary fibrosis, Ratio [2] | Antimicrobial potency of Cu--free compound, against Bacillus subtilis [3] | Max. T/C on Mouse Lymphocytic Leukemia P 388 [4] | 50% growth inhibition concentration (ID50) of Cu--free compound against cultured Hela cell [5] | Antimicrobial potency of Cu--free compound, against Mycobacterium smegmatis ATCC 607 [6] | Grade of pulmonary fibrosis, % [7] | Incidence of pulmonary fibrosis, % [7] | Incidence: number of mice with pulmonary fibrosis/number of mice [7] | Grade: total score of pulmonary fibrosis/total number of samples [7] | Growth inhibition of Hela Cell (in words) [8]
Cc1c(N)nc(C(CC(N)=O)NCC(N)C(N)=O)nc1C(=O)NC(C(=O)NC(C)C(O)C(C)C(=O)NC(C(=O)NCCc1nc(-c2nc(C(=O)NCCCN(C)CCCN(Cc3ccc(OCc4ccccc4)c(OCc4ccccc4)c3)Cc3ccc(OCc4ccccc4)c(OCc4ccccc4)c3)cs2)cs1)C(C)O)C(OC1OC(CO)C(O)C(O)C1OC1OC(CO)C(O)C(OC(N)=O)C1O)c1cnc[nH]1 (stereo not drawn) [Compound No. 34, 3-{N--Methyl-N--[3'-(bis(m,p-dibenzyloxybenzyl)amino)propyl]amino}propylaminoBLM] | 60.0 mg/kg/day | 0% | 0% | 0/9 | 0/27 | 0.00 | 0.00 | 49 mcg potency per mg | 205% | 0.38 µg/mL | 164 mcg potency per mg | – | – | – | – | –
Cc1c(N)nc(C(CC(N)=O)NCC(N)C(N)=O)nc1C(=O)NC(C(=O)NC(C)C(O)C(C)C(=O)NC(C(=O)NCCc1nc(-c2nc(C(=O)NCCCN(C)CCCN(Cc3ccccc3)Cc3ccccc3)cs2)cs1)C(C)O)C(OC1OC(CO)C(O)C(O)C1OC1OC(CO)C(O)C(OC(N)=O)C1O)c1cnc[nH]1 (stereo not drawn) [compound 27, 3-{N--Methyl-N--[3'-(dibenzylamino)propyl]amino}propylaminoBLM] | – | 7% | 20% | 1/5 | 1/15 | 0.08 | 0.32 | 1138 mcg potency per mg | 149% | 0.89 µg/mL | 14194 mcg potency per mg | 7% | 22% | 2/9 | 2/27 | –
Cc1c(N)nc(C(CC(N)=O)NCC(N)C(N)=O)nc1C(=O)NC(C(=O)NC(C)C(O)C(C)C(=O)NC(C(=O)NCCc1nc(-c2nc(C(=O)NCCCN(C)CCCN)cs2)cs1)C(C)O)C(OC1OC(CO)C(O)C(O)C1OC1OC(CO)C(O)C(OC(N)=O)C1O)c1cnc[nH]1 (stereo not drawn) [APMP, 3-[N-(3-aminopropyl)-N-methylamino]propylaminobleomycin, reference compound] | – | 0% | 100% | 9/9 | 48/27 | 2.15 | 1.6 | – | – | – | – | – | – | – | – | strongly inhibits
Cc1c(N)nc(C(CC(N)=O)NCC(N)C(N)=O)nc1C(=O)NC(C(=O)NC(C)C(O)C(C)C(=O)NC(C(=O)NCCc1nc(-c2nc(C(=O)NCCCN(C)CCCNCC3CCCCCCCCCC3)cs2)cs1)C(C)O)C(OC1OC(CO)C(O)C(O)C1OC1OC(CO)C(O)C(OC(N)=O)C1O)c1cnc[nH]1 (stereo not drawn) [Compound No. 32, 3-{N--Methyl-N--[3'-(cycloundecanylmethylamino)propyl]amino}propylaminoBLM] | 17.5 mg/kg/day | 0% | 0% | 0/9 | 0/27 | 0.00 | 0.00 | 8146 mcg potency per mg | 166% | 0.58 µg/mL | 28308 mcg potency per mg | – | – | – | – | –
Cc1c(N)nc(C(CC(N)=O)NCC(N)C(N)=O)nc1C(=O)NC(C(=O)NC(C)C(O)C(C)C(=O)NC(C(=O)NCCc1nc(-c2nc(C(=O)NCCC[N+](C)(C)CCCN(Cc3ccccc3)Cc3ccccc3)cs2)cs1)C(C)O)C(OC1OC(CO)C(O)C(O)C1OC1OC(CO)C(O)C(OC(N)=O)C1O)c1cnc[nH]1 (stereo not drawn) [compound 35, 3-{N,N--Dimethyl-N--[3'-(dibenzylamino)propyl]amino}propylaminoBLM] | – | 0% | 0% | 0/9 | 0/27 | 0.00 | 0.00 | 1742 mcg potency per mg | 153% | 0.87 µg/mL | 13784 mcg potency per mg | 8% | 25% | 2/8 | 2/24 | –
Cc1c(N)nc(C(CC(N)=O)NCC(N)C(N)=O)nc1C(=O)NC(C(=O)NC(C)C(O)C(C)C(=O)NC(C(=O)NCCc1nc(-c2nc(C(=O)NCCCN3CCN(CCCN(Cc4ccccc4)Cc4ccccc4)CC3)cs2)cs1)C(C)O)C(OC1OC(CO)C(O)C(O)C1OC1OC(CO)C(O)C(OC(N)=O)C1O)c1cnc[nH]1 (stereo not drawn) [Compound No. 43] | 12.5 mg/kg/day | 0% | 0% | 0/9 | 0/27 | 0.00 | 0.00 | 1230 mcg potency per mg | 182% | 0.50 µg/mL | 14420 mcg potency per mg | – | – | – | – | –
Cc1c(N)nc(C(CC(N)=O)NCC(N)C(N)=O)nc1C(=O)NC(C(=O)NC(C)C(O)C(C)C(=O)NC(C(=O)NCCc1nc(-c2nc(C(=O)NCCCN(C)CCCNCc3ccc(OCc4ccccc4)c(OCc4ccccc4)c3)cs2)cs1)C(C)O)C(OC1OC(CO)C(O)C(O)C1OC1OC(CO)C(O)C(OC(N)=O)C1O)c1cnc[nH]1 (stereo not drawn) [compound 15] | – | 4% | 11% | 1/9 | 1/27 | 0.05 | 0.18 | 1772 mcg potency per mg | 165% | 0.36 µg/mL | 4516 mcg potency per mg | 4% | 13% | 1/8 | 1/24 | –
CC[N+](CC)(CCCNC(=O)c1csc(-c2csc(CCNC(=O)C(NC(=O)C(C)C(O)C(C)NC(=O)C(NC(=O)c3nc(C(CC(N)=O)NCC(N)C(N)=O)nc(N)c3C)C(OC3OC(CO)C(O)C(O)C3OC3OC(CO)C(O)C(OC(N)=O)C3O)c3cnc[nH]3)C(C)O)n2)n1)CCCN(Cc1ccccc1)Cc1ccccc1 (stereo not drawn) [Compound No. 37, 3-[N,N-diethyl-N-(3'-dibenzylamino)propyl]aminopropylaminobleomycin] | 50.0 mg/kg/day | – | – | – | – | – | – | 1047 mcg potency per mg | 168% | 0.70 µg/mL | 10680 mcg potency per mg | – | – | – | – | –

— patent US4568490A, “Aminopropylaminobleomycin derivatives and process for preparation thereof” (Zaidan Hojin Biseibutsu Kagaku Kenkyu Kai, priority 1981, dated 1986)
